The values that follow come from patent publication US4827004A, “Isoprene derivatives” (Hoffmann-La Roche Inc., priority 1986, dated 1989).

The subject of series [1] is mucous membrane of the stomach. Put plainly: ethanol test (mucosa-protective activity; ethanol-induced gastric lesions). In kind it is in vivo, male rats. To be noted: Rattus norvegicus, po, read-out: Ethanol Test ID 50. The procedure: The experimental procedure described hereinafter was used to determine the muscosa-protective property:
The oral administration of absolute ethanol to male rats in a dosage of 1 ml per rat leads within 1 hour to bloody lesions of the mucous membrane of the stomach. Various dosages of the substances to be tested (suspended in 0.125% carboxymethylcellulose) or of the vehicle alone (control) are administered to the rats orally (1 ml per rat) 30 minutes prior to the treatment with ethanol. One hour after the administration of the ethanol the animals are killed, their stomachs are investigated for the presence of lesions and the number and the total dimension of such lesions are determined. The ID50 is that dosage of a test substance which reduces by 50% the number of lesions in comparison to the control group.
(§1) In the following Table there are given for a series of representative compounds of formula I the results of the testing with respect to their mucosa-protective activity ("ethanol test") and to their gastric acid secretion-inhibiting activity. Moreover, this Table contains data concerning the acute toxicity (LD50 in the case of single oral administration to mice).

Series [2] relates to gastric acid secretion. Put plainly: gastric acid secretion-inhibiting activity (pylorus ligation according to Shay et al.). To be noted: Rattus norvegicus, read-out: Gastric acid secretion-inhibition, ID 50. The series is classed as in vivo, male rats. How it is done: The test procedure described hereinafter was used to determine the gastric acid secretion-inhibiting activity:
The pylorus of male rats is ligated under slight ether narcosis in accordance with Shay et al. [Gastroenterology 5, 43 (1945)]. The substances to be tested, suspended in 0.5% carboxymethylcellulose, are administered intraduodenally. Control animals are treated only with the vehicle. Five hours after the ligation the animals are killed, the volume and acidity of their gastric juice are determined and the values obtained are compared with those of control animals. The ID50 is that dosage of a test substance which brings about a 50% decrease of the secretion in comparison to the control animals.
as §1

The nature of series [3]: acute toxicity (single oral administration). To be noted: mouse, in vivo, read-out: Toxicity LD 50.
Description: Representative compounds of formula I were investigated with respect to their mucosa-protective and gastric acid secretion-inhibiting properties as well as to their toxicity.
as §1

The mark [4] stands for this setting: 30 minutes before ethanol, dosage reducing number of lesions by 50% vs control, male rats.
Where [5] appears, read: intraduodenal, 5 hours after pylorus ligation, 50% decrease of secretion vs control, male rats.
The mark [6] stands for this setting: p.o., single oral administration to mice.

Each structure is given as a SMILES string. Where two headings read alike, the source gives them in different places. Some results are limits rather than exact numbers.

As for `C=C(C)C(=O)CC/C(C)=C/CC/C(C)=C/C=NO` (mixture of isomers) [T, (2E,6E)-3,7,11-trimethyl-10-oxo-2,6,11-dodecatrienal (E/Z)-oxime], the ED50 was found to be 7.8 mg/kg in series [1] (setting [4]) and 9.3 mg/kg in series [2] (setting [5]).
Turning to `C#CC(CC/C(C)=C/CC/C(C)=C/CO)=NOC` (mixture of isomers) [U, (6E,10E)-12-hydroxy-6,10-dimethyl-6,10-dodecadien-1-yn-3-one (E/Z)-O-methyl oxime], the ED50 was determined as 7.9 mg/kg in series [1] (setting [4]) and 43.9 mg/kg in series [2] (setting [5]). Further, in series [3] (po), the LD50 fell in the range of 1000 to 2000 mg/kg.
For `CC=CC(O)CC/C(C)=C/CC/C(C)=C/CO` (mixture of isomers) [V, (2E,6E,11(E/Z))-3,7-dimethyl-2,6,11-tridecatriene-1,10-diol], the results for the ED50 in series [1] (setting [4]) and in series [2] (setting [5]) were 9.3 mg/kg and 57.4 mg/kg, respectively.
As for `C#CC(=O)CC/C(C)=C/CC/C(C)=C/CO` [A, (all-E)-12-hydroxy-6,10-dimethyl-6,10-dodecadien-1-yn-3-one], the ED50 in series [1] (setting [4]) was determined as 0.55 mg/kg; in series [2] (setting [5]) it was 2 mg/kg. Moreover, in series [3] (po), the LD50 was 1000 to 2000 mg/kg.
For `C=CC(=O)CC/C(C)=C/CC/C(C)=C/CO` [B, (all-E)-12-hydroxy-6,10-dimethyl-1,6,10-dodecatrien-3-one], the ED50 amounted to 0.62 mg/kg in series [1] (setting [4]) and 68.2 mg/kg in series [2] (setting [5]).
Turning to `CC#CC(=O)CC/C(C)=C/CC/C(C)=C/CO` [C, (all-E)-13-hydroxy-7,11-dimethyl-7,11-tridecadien-2-yn-4-one], the ED50 in series [1] (setting [4]) amounted to 0.78 mg/kg; in series [2] (setting [5]), 80.3 mg/kg. The LD50 in series [3] (po) was in the range of 1000 to 2000 mg/kg.
In the same order, the values of `C/C=C/C(=O)CC/C(C)=C/CC/C(C)=C/CO` [D, (all-E)-13-hydroxy-7,11-dimethyl-2,7,11-tridecatrien-4-one] are 0.79 mg/kg, 66 mg/kg and 1000 to 2000 mg/kg.
For the molecule `C#CC(CC/C(C)=C/CC/C(C)=C/CO)(OCC)OCC` [E, (all-E)-10,10-diethoxy-3,7-dimethyl-2,6-dodecadien-11-yn-1-ol], the ED50 in series [1] (setting [4]) was 0.93 mg/kg; in series [2] (setting [5]), 18.4 mg/kg.
In the case of `C=C(C)C(=O)CC/C(C)=C/CC/C(C)=C/CO` [F, (all-E)-12-hydroxy-2,6,10-trimethyl-1,6,10-dodecatrien-3-one], the ED50 in series [1] (setting [4]) was determined as 1.3 mg/kg; in series [2] (setting [5]), 27.7 mg/kg. For the same molecule, in series [3] (po), the LD50 was in the range of 625 to 1250 mg/kg.
In the same order, the values of `C=C(C)C(=O)CC/C(C)=C/CC/C(C)=C/C=O` [G, (all-E)-10-oxo-3,7,11-trimethyl-2,6,11-dodecatrienal] are 1.8 mg/kg, 62.4 mg/kg and 1000 to 2000 mg/kg.
With `C=C(C)C(=O)CC/C(C)=C\CC/C(C)=C\CO` [H, (6Z,10Z)-12-hydroxy-2,6,10-trimethyl-1,6,10-dodecatrien-3-one], the ED50 in series [1] (setting [4]) was found to be 1.8 mg/kg; in series [2] (setting [5]), 57.7 mg/kg. For the same molecule, in series [3] (setting [6]), the LD50 fell in the range of 2500 to 5000 mg/kg.
For the molecule `C=C(C)C1(CC/C(C)=C/CC/C(C)=C/CO)OCCO1` [I, (all-E)-3,7-Dimethyl-9-[2-(1-methylvinyl)-1,3-dioxolan-2-yl]-2,6-nonadien-1-ol], the ED50 in series [1] (setting [4]) worked out at 2.7 mg/kg; in series [2] (setting [5]), 13.2 mg/kg. In addition, in series [3] (po), the LD50 was above 4000 mg/kg.
In the case of `C=C(C)C(=O)CC/C(C)=C/CC/C(C)=C/C(N)=O` [J, (E,E)-3,7,11-trimethyl-10-oxo-2,6,11-dodecatrienamide], the ED50 in series [1] worked out at 3.4 mg/kg; in series [2] (5 h) it was 63.9 mg/kg. Also, the LD50 in series [3] (setting [6]) was 1000 to 2000 mg/kg.
For `CC(C)=CC(=O)CC/C(C)=C/CC/C(C)=C/CO` [K, (all-E)-13-hydroxy-2,7,11-trimethyl-2,7,11-tridecatrien-4-one], the results for the ED50 in series [1] (setting [4]) and in series [2] (setting [5]) were 3.6 mg/kg and 60.8 mg/kg, respectively.
Regarding `C=C(C)C(=O)CC/C(C)=C/CC/C(C)=C\CO` [L, (6E,10Z)-12-hydroxy-2,6,10-trimethyl-1,6,10-dodecatrien-3-one], the ED50 worked out at 4.4 mg/kg in series [1] (setting [4]) and 73.4 mg/kg in series [2] (setting [5]). In addition, the LD50 in series [3] (setting [6]) is 625 to 1250 mg/kg.
In the same order, the values of `C=C(C)C(=O)CC/C(C)=C\CC/C(C)=C/CO` [M, (6Z,10E)-12-hydroxy-2,6,10-trimethyl-1,6,10-dodecatrien-3-one] are 4.5 mg/kg, 62.7 mg/kg and 2500 to 5000 mg/kg.
Consider `C=C(C)C(O)CC/C(C)=C/CC/C(C)=C/CO` (stereo not drawn) [N, (all-E)-3,7,11-trimethyl-2,6,11-dodecatriene-1,10-diol], for which the ED50 in series [1] (setting [4]) was determined as 3.2 mg/kg; in series [2] (setting [5]), 41.6 mg/kg. In addition, the LD50 in series [3] (po) was above 2000 mg/kg.
In the case of `C=C(C)C(O)CC/C(C)=C/CC/C(C)=C/C(=O)O` (stereo not drawn) [O, (all-E)-10-hydroxy-3,7,11-trimethyl-2,6,11-dodecatrienoic acid], the ED50 in series [1] (setting [4]) was determined as 26.8 mg/kg; in series [2] (setting [5]) it was 48.8 mg/kg. The LD50 in series [3] (po) lay within 1250 to 2500 mg/kg.
Take `C=C(C)C(=O)CC/C(C)=C/CC/C(C)=C/C(=O)O` [P, (all-E)-10-Oxo-3,7,11-trimethyl-2,6,11-dodecatrienoic acid]: the ED50 worked out at 5 mg/kg in series [1] (setting [4]) and 79.6 mg/kg in series [2] (setting [5]). Besides, the LD50 in series [3] (po) is 1250 to 2500 mg/kg.
For the molecule `C=C(C)C(CC/C(C)=C/CC/C(C)=C/CO)(OC)OC` [Q, (all-E)-10,10-dimethoxy-3,7,11-trimethyl-2,6,11-dodecatrien-1-ol], the ED50 was 5.3 mg/kg in series [1] (setting [4]) and 4.7 mg/kg in series [2] (setting [5]). Moreover, the LD50 in series [3] (po) was above 5000 mg/kg.
Taken in the same sequence, the figures for `C=C(C)C(O)CC/C(C)=C/CC/C(C)=C/C=O` (stereo not drawn) [R, (all-E)-10-hydroxy-3,7,11-trimethyl-2,6,11-dodecatrienal] were 6.4 mg/kg, 28.6 mg/kg and above 5000 mg/kg.
As to `C/C(=C\CO)CC/C=C(\C)CCC(=O)C#C[Si](C)(C)C` [S, (all-E)-12-hydroxy-6,10-dimethyl-1-(trimethylsilyl)-6,10-dodecadien-1-yn-3-one], the ED50 in series [1] amounted to 6.5 mg/kg; in series [2] (5 h), 46.9 mg/kg.
